# Experimental data: the NIST ThermoML archive (doi:10.1021/acs.jced.9b00246)
# Numbers after ± are expanded uncertainties.
# Assay: an = ratio of the nth substance listed
# Settings: 101.3 kPa, Liquid; for viscosity: Concentric cylinders viscometry; for mass density: Vibrating tube method
smiles,measurement,setting,value
CCN.Cl [ethylammonium chloride] + NC(N)=O,viscosity,"313.2 K, a2 = 0.5",97.8 ± 9 mPa·s
same,viscosity,"313.2 K, a2 = 1",197.7 ± 5.6 mPa·s
same,viscosity,"313.2 K, a2 = 1.94",105.5 ± 12 mPa·s
same,mass density,"313.2 K, a2 = 0.5",1103.2 ± 3.4 kg/m3
same,mass density,"313.2 K, a2 = 1",1141.67 ± 3.4 kg/m3
same,mass density,"313.2 K, a2 = 1.94",1178.75 ± 5 kg/m3
same,viscosity,"323.2 K, a2 = 0.5",69.6 ± 5.1 mPa·s
same,viscosity,"323.2 K, a2 = 1",110.1 ± 4.6 mPa·s
same,viscosity,"323.2 K, a2 = 1.94",67.5 ± 6.2 mPa·s
same,mass density,"323.2 K, a2 = 0.5",1098.1 ± 3.3 kg/m3
same,mass density,"323.2 K, a2 = 1",1135.99 ± 3.3 kg/m3
same,mass density,"323.2 K, a2 = 1.94",1172.79 ± 5 kg/m3
same,viscosity,"333.2 K, a2 = 0.5",50.8 ± 4.2 mPa·s
same,viscosity,"333.2 K, a2 = 1",68.3 ± 4.1 mPa·s
same,viscosity,"333.2 K, a2 = 1.94",49.2 ± 4.6 mPa·s
same,mass density,"333.2 K, a2 = 0.5",1093.11 ± 3.3 kg/m3
same,mass density,"333.2 K, a2 = 1",1130.4 ± 3.2 kg/m3
same,mass density,"333.2 K, a2 = 1.94",1166.88 ± 4.9 kg/m3
same,viscosity,"343.2 K, a2 = 0.5",40.9 ± 4 mPa·s
same,viscosity,"343.2 K, a2 = 1",47.6 ± 4.1 mPa·s
same,viscosity,"343.2 K, a2 = 1.94",37.5 ± 4.2 mPa·s
same,mass density,"343.2 K, a2 = 0.5",1088.05 ± 3.2 kg/m3
same,mass density,"343.2 K, a2 = 1",1124.89 ± 3.2 kg/m3
same,mass density,"343.2 K, a2 = 1.94",1160.96 ± 4.8 kg/m3
same,viscosity,"353.2 K, a2 = 0.5",34.8 ± 4 mPa·s
same,viscosity,"353.2 K, a2 = 1",34.8 ± 4 mPa·s
same,viscosity,"353.2 K, a2 = 1.94",28.7 ± 4.1 mPa·s
same,mass density,"353.2 K, a2 = 0.5",1083.06 ± 3.2 kg/m3
same,mass density,"353.2 K, a2 = 1",1119.43 ± 3.2 kg/m3
same,mass density,"353.2 K, a2 = 1.94",1155.08 ± 4.8 kg/m3
